Columns and labels:
PC3 = assay: MTT cytotoxicity, PC-3 prostate adenocarcinoma cells; format: cell-based, human; details: 48 h; for IC50: Homo sapiens, PC-3, adhesive tumor culture
Description: (§1) Cell cultures used in the work: adhesive cultures HBL-100 cells (cells of a normal mammary gland epithelium, immortalized by the SV40 virus and acquired tumorigenicity); MCF-7 breast cancer cells; PC-3 prostate adenocarcinoma cells; HCT-116 colorectal cancer cells; non-small cell lung cancer cells A549; human embryonic kidney cells HEK293; suspension cultures (NCI-H929 and RPMI8226 multiple myeloma cells), K562 chronic myeloid leukemia cells; THP-1 acute monocytic leukemia cells; and Jurkat acute T-cell leukemia cells. We also used several primary cultures of soft tissue sarcomas at 3–4passeges, kindly provided by T.I. Fetisov (The Ethics Committee of N.N. Blokhin NMRCO, protocol code 18-28-09095 and date of approval 28 September 2018).
(§2) Modifications of cell lines: K562/i-S9 is a clone obtained after transfection of K562 cells with the ABCB1 (MDR1) gene-encoding P-glycoprotein [36]. Cells HBL-100/Dox and K562/i-S9_Dox are cells obtained by long-term selection with increasing concentrations of doxorubicin (Sigma-Aldrich, St. Louis, MO, USA) from HBL-100 and K562/i-S9 cells, respectively. MCF-7, A594 cells, and primary cultures of soft tissue sarcomas were cultured in DMEM medium (PanEko, Russia), PC-3 and HCT-116 cells and all suspension cultures in RPMI1640 medium (PanEko, Russia) supplemented with 10% fetal bovine serum (GE Healthcare LifeSciences, USA), and gentamicin at a concentration of 40 μg/mL at 37 °C and 5% CO2.
(§3) Cells MCF-7, PC-3, A549, and HCT-116, and primary cultures of STSwere seeded in 96-well plates, 6 × 10^3 cells per well in 90 μL of culture medium. Suspension cultures were seeded at a concentration of 25 × 10^3 cells per well in 135 μL of medium. The test substances were dissolved in DMSO (Applichem, Council Bluffs, IA, USA) until a concentration of 1 × 10^−^2 M was obtained; for the subsequent dilution of the substances, a serum-free culture medium was used. The next day, for adhesive cultures, and on the same day, for suspension cultures, substances were added to the plates in a volume of 10 μL (adhesive cultures) and 15 μL (suspension cultures) per well at various concentrations; each concentration was added in 3–4 repetitions. The cells were cultured in the presence of substances for 48 h. Then, MTT reagent (PanEko, Moscow, Russia) was added to the wells at a concentration of 5 mg/mL in a volume of 20 μL per well. After 1.5–2 h, the medium with the reagent was removed, and the precipitate of the crystals of formazan was dissolved in 60 μL of DMSO. The optical density was determined using a Multiskan FC spectrophotometer (Thermo Scientific, Waltham, MA, USA) at a wavelength of 540 nm.
(§4) Based on the results of the experiments, a schedule was plotted of the dependence of the percentage of surviving cells (from control) on the concentration of the compound, and the sought concentration IC50 was calculated. The experiments were carried out in 3–4 times.

HCT-116 = assay: MTT cytotoxicity, HCT-116 colorectal cancer cells; format: cell-based, human; details: 48 h; for IC50: Homo sapiens, HCT-116, adhesive tumor culture
Description: as §1, §2, §3, §4

JNK (pThr183/pTyr185) = assay: MILLIPLEX MAP 9-Plex, JNK active form in A431 lysates; format: cell-based, human; details: 10 μM; for JNK (pThr183/pTyr185) fluorescence intensity: A431 cell lysates, 1 h, M ± mx, control 50.9 ± 10.5; for activation of signaling pathway JNK (pThr183/pTyr185), in words: A431 cells
Description: (§5) We used the MILLIPLEX MAP Multi-Pathway Magnetic Bead 9-Plex-Cell Signaling Multiplex Assay, which allows the simultaneous detection of nine phosphorylated proteins that are markers of the main intracellular signaling pathways (phosphorylation site is indicated in parentheses), a universal transcription factor that controls the expression of immune response genes; apoptosis and cell cycle NFκB (pS536); cAMP-dependent transcription factor (CREB (pS133); mitogen-activated kinase p38 (pT180/pY182); stress-activated protein kinase JNK (pT183/pY185); ribosomal […]; transcription factors STAT3 (pS727) and STAT5A/B (pY694/699); protein kinase B (Akt) (pS473); and kinase regulated by extracellular signals ERK1/2 (pT185/pY187).
(§6) The effect of various concentrations of PPA derivatives on the cell culture was studied using xCelligence RTCA equipment (AceaBioscience, San Diego, CA, USA). The concentration closest to the IC50 (10 μM) was chosen as the experimental concentration. The selected concentration of phaeosphaeride A derivatives allows for the assessment of the early effect of compounds on cells and compares their effectiveness. In this experiment, the signaling pathways Akt (pSer473), p70S6K (pThr412), NFkB (p65-pSer536), and CREB (pSer133) were not activated (Table 8). The stress-activated signaling pathways ERK/MAP kinase 1/2 (pThr185/pTyr187), JNK (pThr183/pTyr185), and p38 (pThr180/pTyr182) were activated for these compounds.
(§7) We used a MILLIPLEX MAP Multi-Pathway Magnetic Bead 9-Plex-Cell Signaling Multiplex Assay kit (Merck/Millipore), according to the manufacturer’s protocol. A431 cells were cultured in DMEM with 10% FBS in 24-well plates. Compounds were added to the subconfluent cells at a concentration of 10 μM in DMEM medium for 1 h. Each compound was added in 5 experimental repeats. Cell lysates were prepared with lysis buffer (Millipore) with protease inhibitors (Complete, Roche); the protein concentration in the lysates was determined by the Lowry method. In samples equalized in protein concentration, the active forms of kinase cascades were determined using a Bio-Plex 200 fluorescent analyzer (Bio-Rad).

RPMI8226 = assay: MTT cytotoxicity, RPMI8226 multiple myeloma cells; format: cell-based; details: Homo sapiens, RPMI-8226, suspension culture, 48 h
Description: as §1, §2, §3, §4

Akt (pSer473) = assay: MILLIPLEX MAP 9-Plex, Akt active form in A431 lysates; format: cell-based, human; details: A431 cell lysates, 10 μM, 1 h, M ± mx; control 76.4 ± 16.9
Description: as §5, §6, §7

HEK293 = assay: MTT cytotoxicity, human embryonic kidney cells HEK293; format: cell-based; details: 48 h
Description: as §1, §3, §4

p70S6K (pThr389/412) = assay: MILLIPLEX MAP 9-Plex, p70S6K active form in A431 lysates; format: cell-based, human; details: A431 cell lysates, 10 μM, 1 h, M ± mx; control 39.9 ± 7.2
Description: as §5, §6, §7

NCI-H929 = assay: MTT cytotoxicity, NCI-H929 multiple myeloma cells; format: cell-based; details: Homo sapiens, suspension culture, 48 h
Description: as §1, §2, §3, §4

HBL-100/Dox = assay: MTT cytotoxicity, resistant HBL-100/Dox cells; format: cell-based, human; details: for IC50: Homo sapiens, HBL-100, resistant version, MTT, 48 h; for resistance of HBL-100/Dox cells relative to HBL-100: ratio of IC50 values, Table 5
Description: At the next stage, the cytotoxic activity of compounds 1, 2, and 9 (Scheme 2) was investigated on several pairs of cell lines that differ in the expression of P-gp and the method by which they were obtained. […] K562/i-S9_Dox cells were obtained from K562/i-S9 by selection with low concentrations of doxorubicin to increase P-gp expression.
as §2, §3
The experiments were carried out in 3–4 times.

Structure (SMILES) | IC50 (PC3) | IC50 (HCT-116) | JNK (pThr183/pTyr185) fluorescence intensity (JNK (pThr183/pTyr185)) | IC50 (RPMI8226) | Akt (pSer473) fluorescence intensity (Akt (pSer473)) | IC50 (HEK293) | p70S6K (pThr389/412) fluorescence intensity (p70S6K (pThr389/412)) | IC50 (NCI-H929) | IC50 (HBL-100/Dox) | resistance of HBL-100/Dox cells relative to HBL-100 (HBL-100/Dox) | activation of signaling pathway JNK (pThr183/pTyr185), in words (JNK (pThr183/pTyr185)) | IC50 value, PC3 (PC3; adhesive tumor culture) | IC50 value, HCT-116 (HCT-116; adhesive tumor culture)
C=C1C2=C(C(=O)N1OC)[C@@H](N1CCCC1)[C@@](C)(O)[C@H](CCCCC)O2 [Compound 1] | 7.6 ± 0.9 µM | 7.6 ± 0.9 µM | 239.9 ± 23.9 *↑ rel. units | 1.6 ± 0.3 µM | 112.6 ± 12.0 rel. units | 5.1 ± 0.7 µM | 51.7 ± 4.8 rel. units | 0.7 ± 0.2 µM | 7.6 ± 0.6 µM | no difference in resistance |  |  | 
C=C1C2=C(C(=O)N1OC)[C@@H](N(C)C)[C@@](C)(O)[C@H](CCCCC)O2 [Compound 2, (2S,3R,4R)-4-(dimethylamino)-3-hydroxy-6-methoxy-3-methyl-7-methylene-2-pentyl-3,4,6,7-tetrahydropyrano[2,3-c]pyrrol-5(2H)-one] | 5.9 ± 3 µM | 4.2 ± 0.2 µM | 559.2 ± 31.5 *↑ rel. units | 1.6 ± 0.5 µM | 132.4 ± 17.9 rel. units | 4.2 ± 0.3 µM | 56.9 ± 9.9 rel. units | 0.5 ± 0.1 µM | 6.6 ± 1.2 µM | no difference in resistance | maximum degree of activation |  | 
C=C1C2=C(C(=O)N1OC)[C@@H](N(CCCC)CCCC)[C@@](C)(O)[C@H](CCCCC)O2 [Compound 5, (2S,3R,4R)-4-(dibutylamino)-3-hydroxy-6-methoxy-3-methyl-7-methylene-2-pentyl-3,4,6,7-tetrahydropyrano[2,3-c]pyrrol-5(2H)-one] | 9.4 ± 1 µM | 12 ± 0.9 µM | 83.1 ± 8.3 *↑ rel. units | 6.3 ± 0.3 µM | 100.9 ± 11.7 rel. units | 8.2 ± 0.9 µM | 70.6 ± 9.2 *↑ rel. units | 2.9 ± 0.3 µM |  |  | only slightly activated |  | 
C=C1C2=C(C(=O)N1OC)[C@@H](N(CC)CCO)[C@@](C)(O)[C@H](CCCCC)O2 [Compound 9, (2S,3R,4R)-4-[ethyl(2-hydroxyethyl)amino]-3-hydroxy-6-methoxy-3-methyl-7-methylene-2-pentyl-3,4,6,7-tetrahydropyrano[2,3-c]pyrrol-5(2H)-one] | 7.8 ± 0.1 µM | 3.9 ± 0.1 µM | 117.9 ± 15.1 *↑ rel. units | 1.8 ± 0.2 µM | 88.8 ± 10.7 rel. units | 3.8 ± 0.4 µM | 38.8 ± 7.4 rel. units | 0.6 ± 0.2 µM | 8.4 ± 0.4 µM | tendency towards a slightly higher resistance |  |  | 
CCCCC[C@@H]1OC2=C(C(=O)N(OC)/C2=C\n2cnnc2)C(n2cnnc2)[C@@]1(C)O (stereo partly shown) [Compound 10] |  |  | 157.2 ± 15.4 *↑ rel. units | 51 ± 0.2 µM | 142.1 ± 9.5 *↑ rel. units | 41 ± 2.1 µM | 53.4 ± 4.0 rel. units | 5.6 ± 0.7 µM |  |  | only slightly activated | not active | not active
